Reference: publication PMC10598797, “Molecular View on the iRGD Peptide Binding Mechanism: Implications for Integrin Activity and Selectivity Profiles” (Journal of Chemical Information and Modeling, 2023)

Experiments:
αvβ6 = target: T1, αvβ6 (Homo sapiens, UniProt P06756+P18564); test: Solid-phase integrin binding assay, αvβ6; conditions: αvβ6 1 μg/mL coated overnight at 4 °C; biotinylated fibronectin 1 μg/mL; 3 h incubation at room temperature; pH 7.4; absorbance 415 nm; mean of three independent experiments ± SEM
T1 construct: purchased Sino Biological Europe GmbH
T1 sequence (P06756 31-992 limits assumed): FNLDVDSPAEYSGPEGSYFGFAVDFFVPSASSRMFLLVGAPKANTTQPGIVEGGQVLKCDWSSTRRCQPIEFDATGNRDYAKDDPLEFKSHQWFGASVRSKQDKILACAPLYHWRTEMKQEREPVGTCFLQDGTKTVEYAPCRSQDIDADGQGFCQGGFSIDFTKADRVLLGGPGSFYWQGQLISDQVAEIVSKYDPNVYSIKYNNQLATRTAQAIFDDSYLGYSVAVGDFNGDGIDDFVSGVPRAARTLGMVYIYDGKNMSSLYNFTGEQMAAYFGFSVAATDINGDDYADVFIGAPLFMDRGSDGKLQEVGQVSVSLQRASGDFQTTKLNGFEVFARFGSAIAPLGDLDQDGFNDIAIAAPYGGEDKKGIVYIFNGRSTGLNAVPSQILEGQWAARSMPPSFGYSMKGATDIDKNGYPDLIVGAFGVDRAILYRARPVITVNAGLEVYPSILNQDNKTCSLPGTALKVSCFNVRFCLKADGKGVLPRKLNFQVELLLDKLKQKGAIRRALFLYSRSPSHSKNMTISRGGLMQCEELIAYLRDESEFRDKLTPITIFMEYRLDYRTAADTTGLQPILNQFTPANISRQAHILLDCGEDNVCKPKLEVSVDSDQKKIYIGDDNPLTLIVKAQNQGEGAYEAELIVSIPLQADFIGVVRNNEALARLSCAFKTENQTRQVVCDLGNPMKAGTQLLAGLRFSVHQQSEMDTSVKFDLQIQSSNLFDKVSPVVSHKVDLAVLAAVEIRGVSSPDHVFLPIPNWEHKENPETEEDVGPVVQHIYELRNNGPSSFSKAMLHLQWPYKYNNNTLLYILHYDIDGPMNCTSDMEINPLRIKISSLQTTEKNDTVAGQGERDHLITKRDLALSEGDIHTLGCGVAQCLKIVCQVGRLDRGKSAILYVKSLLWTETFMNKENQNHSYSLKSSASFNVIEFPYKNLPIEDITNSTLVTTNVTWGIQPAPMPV
T1 sequence (P18564 22-707 limits assumed): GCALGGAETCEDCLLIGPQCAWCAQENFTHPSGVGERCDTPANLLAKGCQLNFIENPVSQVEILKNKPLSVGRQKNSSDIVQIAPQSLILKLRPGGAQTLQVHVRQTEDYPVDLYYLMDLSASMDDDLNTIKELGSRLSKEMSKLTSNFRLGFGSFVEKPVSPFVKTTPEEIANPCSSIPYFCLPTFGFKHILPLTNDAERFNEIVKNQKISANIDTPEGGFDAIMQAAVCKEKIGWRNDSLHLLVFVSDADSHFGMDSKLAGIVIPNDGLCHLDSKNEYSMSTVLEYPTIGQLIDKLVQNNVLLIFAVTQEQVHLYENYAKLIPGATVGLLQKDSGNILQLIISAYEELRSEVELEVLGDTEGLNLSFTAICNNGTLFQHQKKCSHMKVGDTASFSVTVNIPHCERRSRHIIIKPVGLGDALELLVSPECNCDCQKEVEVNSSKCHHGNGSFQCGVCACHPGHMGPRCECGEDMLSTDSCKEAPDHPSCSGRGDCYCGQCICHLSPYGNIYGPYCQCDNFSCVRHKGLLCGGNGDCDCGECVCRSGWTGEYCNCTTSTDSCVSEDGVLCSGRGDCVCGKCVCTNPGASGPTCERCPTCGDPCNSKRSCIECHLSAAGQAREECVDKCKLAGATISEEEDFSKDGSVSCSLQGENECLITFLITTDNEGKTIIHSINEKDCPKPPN
Description: (§3) Purified αvβ3 (Sino Biological Europe GmbH) and αvβ5 (R&D Systems, Inc.) were diluted to 0.5 μg/mL, while αvβ6 (Sino Biological Europe GmbH) was diluted to 1 μg/mL in coating buffer containing Tris–HCl (20 mmol/L; pH 7.4), NaCl (150 mmol/L), MnCl2 (1 mmol/L), CaCl2 (2 mmol/L), and MgCl2 (1 mmol/L). An aliquot of diluted receptors (100 μL per well) was added to 96-well microtiter plates (Nunc MW96F Maxisorp Straight) and incubated overnight at 4 °C. The plates were then incubated with blocking solution (coating buffer plus 1% bovine serum albumin) for an additional 2 h at room temperature to block nonspecific binding, followed by 3 h incubation at room temperature with various concentrations of test compounds in the presence of, respectively, vitronectin (1 μg/mL, Sigma-Aldrich) for αvβ3 and αvβ5 and fibronectin for αvβ6 (1 μg/mL, Sigma-Aldrich) biotinylated using the EZ-Link Sulfo-NHS-Biotinylation kit (Thermo Fisher). […] Absorbance at 415 nm was read with a BMG Labtech Fluostar Optima microplate reader. All of the experiments were performed in triplicates, and the data collected were analyzed using the GraphPad 5.0 Software Package (GraphPad Prism, San Diego, CA).

[1] = cited from earlier work
From the text: (§1) The striking iRGD’s tumor-homing activity is linked to the marked overexpression of RGD integrins on the cancer cell membrane.[38]−[40] […] This can be correlated to the peculiar multistage internalization process of iRGD, where the binding to integrins represents only the first step.[16]

tumor migration = conditions: in vitro, CendR- and NRP-1-dependent; cited from earlier work
From the text: as §1

tumor = conditions: cited from earlier work
From the text: (§2) Nowadays, the clinical efficacy of chemotherapeutic drugs is frequently hampered either by a lack of selectivity over healthy cells or by poor pharmacokinetic properties, including cancer homing and penetration. This is especially true for solid tumors, which are frequently characterized by the upregulation of junction proteins such as desmoglein 2 (DSG2) and E-cadherin, and extracellular matrix (ECM) components (i.e., fibrinogen and collagen), which form a physical barrier against the intracellular transport of exogenous molecules.[1] For these reasons, anticancer compounds often need to be a ...

[2] = system: metastatic pancreatic ductal adenocarcinoma (PDAC); conditions: phase I trial, combination with nab-paclitaxel and gemcitabine; cited from earlier work
From the text: as §2

αvβ5 = target: T2, αvβ5 (Homo sapiens, UniProt P06756+P18084); test: Solid-phase integrin binding assay, αvβ5
T2 construct: purchased R&D Systems, Inc
T2 sequence (P06756 31-992 limits assumed): as the sequence (P06756 31-992 limits assumed) above
T2 sequence (P18084 24-719 limits assumed): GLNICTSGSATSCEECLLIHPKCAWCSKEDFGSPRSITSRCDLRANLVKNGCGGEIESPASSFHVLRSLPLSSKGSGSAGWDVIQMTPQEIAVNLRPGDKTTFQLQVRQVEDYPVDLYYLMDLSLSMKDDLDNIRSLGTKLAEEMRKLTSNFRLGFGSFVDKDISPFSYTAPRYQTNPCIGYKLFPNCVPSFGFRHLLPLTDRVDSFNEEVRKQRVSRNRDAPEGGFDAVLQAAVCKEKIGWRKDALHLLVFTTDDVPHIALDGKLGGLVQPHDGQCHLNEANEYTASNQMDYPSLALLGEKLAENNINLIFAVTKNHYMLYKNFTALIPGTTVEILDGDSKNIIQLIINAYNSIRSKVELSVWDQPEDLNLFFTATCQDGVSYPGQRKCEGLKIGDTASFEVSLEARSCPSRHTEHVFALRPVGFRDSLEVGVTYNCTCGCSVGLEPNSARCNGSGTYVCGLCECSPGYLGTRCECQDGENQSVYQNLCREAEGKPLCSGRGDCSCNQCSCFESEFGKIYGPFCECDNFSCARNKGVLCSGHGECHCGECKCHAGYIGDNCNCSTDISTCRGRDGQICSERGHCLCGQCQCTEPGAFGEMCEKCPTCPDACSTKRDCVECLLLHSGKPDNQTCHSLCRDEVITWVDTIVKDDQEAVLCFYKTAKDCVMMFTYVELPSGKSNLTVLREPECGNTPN
Description: as §3

neuropilin-1 (NRP-1) = conditions: cited from earlier work
From the text: as §1

IC50 (αvβ6) [nM]	potency toward αvβ5 (in words) (αvβ5)	Compound	site of proteolytical cleavage [1]	effect on tumor migration and chemorepulsion (tumor migration)	tumor endocytosis of cytotoxic agents (tumor)	progression-free survival [2]	internalization upon binding to NRP-1 (neuropilin-1 (NRP-1))
191 ± 44	mid-low nanomolar potency	N=C(N)NCCC[C@@H]1NC(=O)[C@@H](N)CSSC[C@@H](C(=O)O)NC(=O)[C@H](CC(=O)O)NC(=O)[C@@H]2CCCN2C(=O)CNC(=O)[C@H](CCCCN)NC(=O)[C@H](CC(=O)O)NC(=O)CNC1=O [1 (iRGD)]	proteolytical cleavage at the Lys^5–Gly^6 bond	can inhibit tumor migration and induce chemorepulsion	enhanced by the simple coadministration	longer progression-free survival	–
–	–	CRGDK [CendR motif]	–	–	–	–	triggers the internalization of the peptide–receptor complex
